{"source": "patent US20080300298A1", "about": "“Honokiol Derivates For the Treatment of Proliferative Disorders” (priority 2005, published 2008)", "key": {"NFkB in M12.4.1 cells": {"tested_on": "NFkB in M12.4.1 cells", "assay": "NFkB activation (luciferase assay)", "assay_type": "cell-based, Mouse", "details": "M12.4.1 cells transfected with hCD40-LMP1; not necessarily to baseline", "procedure": "Mouse M12.4.1 cells (1.5×107), stably transfected with hCD40-LMP1 chimeric molecule were transiently transfected with […] 4×NFkB luciferase reporter plasmid and […] Renilla luciferase vector (pRL-null; Promega, Madison, Wis.) by electroporation. Cells (2×10^6 cells/ml) were rested on ice for 15 minutes, treated with medium alone (BCM), 10 mg/ml anti-TNF-a (MP6-XT3; MP6-XT22), or […] Honokiol for 30 minutes, then incubated an additional 6 hours in the presence of BCM, 10 mg/ml anti-(m)ouse or anti-(h)uman CD40 or isotype controls. After stimulation, cells were pelleted, lysed, and assayed for relative luciferase activity (NFkB: Renilla) per manufacturer's protocol (Promega) using a Turner Designs 20/20 luminometer, with settings of 2 second delay followed by 10 second read. (Note: anti-mCD40 reacts with endougenous CD40 and anti-hCD40 reacts with transfected hCD40-LMP1)."}, "[1]": {"tested_on": "collagen induced arthritis (CIA)", "assay": "collagen induced arthritis (CIA)", "assay_type": "in vivo, C57Bl/6 and LMP1 transgenic mice", "details": "3 mg/mouse/day i.p. from day 21 post-immunization", "procedure": "Female mice expressing the mCD40-LMP1 transgene (on a CD40−/− background) were bred in our transgenic mouse facility. Mice were either left naïve, immunized in the tail s.c. with […] Type II Chicken Collagen (Sigma) dissolved in 10 mM acetic acid and emulsified in IFA (Sigma) containing 5 mg/ml H37 RA heat-killed mycobacteria (Difco) (CFA), or immunized with 10 mM acetic acid emulsified in CFA. Some of the mice were injected i.p. with 3 mg/mouse/day honokiol suspended in 20% Intralipid, starting at day 21 post-immunization."}, "NF-kB in A293 cells": {"tested_on": "NF-kB in A293 cells", "assay": "NF-kB-dependent reporter gene (SEAP) transcription", "assay_type": "cell-based, human", "details": "A293, 25 mM (printed) honokiol 12 h", "quoted_text": "A293 cells were transiently transfected with an NF-kB-containing plasmid linked to the SEAP gene and then treated with the indicated concentrations of honokiol. After 24 h in culture with 0.1 nM TNF, cell supernatants were collected and assayed for SEAP activity. Results are expressed as fold activity over the activity of the vector control. […] A293 cells were transiently transfected with the indicated plasmids along with an NF-kB-containing plasmid linked to the SEAP gene and then left either untreated or treated with 25 mM honokiol for 12 h. Cell supernatants were assayed for secreted alkaline phosphatase activity. Results are expressed as fold activity over the activity of the vector control. Bars indicate standard deviation.\nNF-kB-dependent reporter gene transcription. The effect of honokiol on TNF-induced NF-kB dependent reporter gene transcription in A293 cells was measured as previously described (Shishodia, S., et al. 2003 Cancer Res. 63:4375-4383).\nTo test the effect of honokiol on NF-kB-dependent gene transcription, cells were transiently transfected with the NF-kB-regulated SEAP reporter construct and then stimulated with TNF."}, "CH12.hCD40-LMP1 B cells": {"tested_on": "CH12.hCD40-LMP1 B cells", "assay": "CD40/LMP1 mediated cytokine and IgM production", "assay_type": "cell-based, mouse", "procedure": "IL-6 and TNF-a levels in culture supernatants were determined by ELISA. Subsequent IgM production by CH12.LX cells is also affected, as determined by assaying IgM secretion by CH12.hCD40-LMP1 cells. IgM secretion was measured by hemolytic plaque assay, as previously described (GA Bishop. 1991. J. Immunol. 147(4): 1107-1114)."}, "lymph node cultures": {"tested_on": "lymph node cultures", "assay": "antigen recall lymph node cultures from treated mice", "assay_type": "in vivo, C57BL/6 or mCD40-LMP1 Tg mice", "details": "honokiol 3 mg/day, day 21-70 post-immunization", "procedure": "Mice were assessed 70 days post-immunization with CII/CF or CFA only (or naïve). Some mice received honokiol (3 mg/day) from day 21-70 post-immunization."}, "normal PBMNCs": {"tested_on": "normal PBMNCs", "assay": "cells", "assay_type": "cell-based", "details": "Homo sapiens", "text": "Cells: Dexamethasone (Dex)-sensitive MM.1S (wild-type p53) and Dex-resistant MM.1R, RPMI 8226-Dox40 (doxorubicin resistant) and RPMI 8226-LR5 (melphalan resistant) human multiple myeloma (MM) cell lines were used. RPMI-8226 and U266 cells were obtained from the American Type Culture Collection (Rockville, Md.). SU-DHL-4 cells were also utilized. Fresh peripheral blood mononuclear cells (PBMNCs) were obtained from healthy subjects after informed consent. The PBMNC were separated from heparinized peripheral blood by Ficoll-Hipaque density sedimentation. BM specimens were acquired from patients with MM after obtaining informed consent and mononuclear cells were separated by Ficoll-Hipaque density sedimentation. […]\nReagents: Honokiol (HNK; Calbiochem, San Diego, Calif.) was dissolved in ethanol at 20 mg/ml stock solution. […] Absorbance readings at a wavelength of 450 nm were taken on a spectrophotometer (Molecular Devices Corp., Sunnyvale, Calif.).\nHNK inhibits growth of MM cell lines. To identify the therapeutic potential of HNK, MM cell lines and normal PBMNCs were cultured at indicated concentration with HNK for 48 h, and growth was determined by calorimetric assays. […] FIGS. 6A and B show growth inhibition in MM cell lines by HNK as assessed by calorimetric assay after 48 h-culture. […]"}}, "data": [{"molecule": "C=CCc1ccc(O)c(-c2ccc(O)c(CC=C)c2)c1", "note": "[HNK, Honokiol]", "values": [{"measurement": "NFkB activation (luciferase assay)", "setting": "NFkB in M12.4.1 cells", "value": "inhibited by honokiol in a dose dependent manner"}, {"measurement": "collagen induced arthritis (CIA) pathology", "setting": "[1]", "value": "stablizes collagen induced arthritis (CIA) pathology"}, {"measurement": "SEAP expression induced by TNFR1, TRADD, TRAF2, NIK, IKKb, and p65 plasmids", "setting": "NF-kB in A293 cells", "value": "suppressed SEAP expression in all cells except those transfected with p65"}, {"measurement": "CD40/LMP1 mediated IL-6, TNF-a production", "setting": "CH12.hCD40-LMP1 B cells; CH12.LX cells transfected with hCD40-LMP1, not IL-10 or IL-4", "value": "inhibits CD40/LMP1 mediated IL-6, TNF-a production in a dose-dependent manner"}, {"measurement": "IgM secretion (hemolytic plaque assay)", "setting": "CH12.hCD40-LMP1 B cells; CH12.hCD40-LMP1 cells", "value": "inhibited IgM production"}, {"measurement": "proliferation and cytokine production of antigen recall lymph node cultures", "setting": "lymph node cultures", "value": "decreased proliferation and IFN-g production, with unaltered IL-10 production"}, {"measurement": "IC50", "setting": "normal PBMNCs", "value": "40 to 80", "unit": "µg/mL"}]}]}
